Measurements: publication PMC2990756, “Quantitative High-Throughput Screening Identifies 8-Hydroxyquinolines as Cell-Active Histone Demethylase Inhibitors” (PLoS ONE, 2010)
Like-named read-outs stand apart in the source and are kept apart here.

Assays:
Format in all cases: biochemical
JMJD2E (KDM4E) = target: T1, JMJD2E (KDM4E) (Homo sapiens, UniProt B2RXH2); assay: qHTS fluorescence FDH-coupled JMJD2E demethylase assay; conditions: Table S1; unit not in table, from Figure 2; read-out: qHTS Data: jmjd2e IC50
T1 construct: The catalytic domain of human JMJD2E (residues 1–337); His6 (N); made in house; host or cells: E. coli
T1 sequence (B2RXH2 1-337): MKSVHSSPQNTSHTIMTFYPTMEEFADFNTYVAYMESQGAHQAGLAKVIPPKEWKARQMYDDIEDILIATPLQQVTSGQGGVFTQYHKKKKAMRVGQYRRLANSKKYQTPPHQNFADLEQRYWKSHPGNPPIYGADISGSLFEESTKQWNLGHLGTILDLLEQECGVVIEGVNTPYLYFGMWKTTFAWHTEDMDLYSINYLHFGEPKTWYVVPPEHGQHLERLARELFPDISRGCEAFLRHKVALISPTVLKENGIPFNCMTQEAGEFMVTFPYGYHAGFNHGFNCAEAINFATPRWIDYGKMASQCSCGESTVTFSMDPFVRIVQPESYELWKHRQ
Source text: The oxidation of formaldehyde is coupled to the reduction of NAD^+ to NADH, which is monitored by fluorescence spectroscopy. […] To this end, initial screening hits were filtered by a combination of cheminformatics (to exclude low-confidence inhibitors and autofluorescent false positives), counterscreening against the coupled-assay component formaldehyde dehydrogenase (FDH), and orthogonal direct detection of inhibition of demethylation by mass spectrometry ( Figure 1 ).
Reactions were initiated with 1 µL addition of peptide substrate solution containing final concentrations of 10 µM FAS, 50 µM 2OG, 0.25 U/mL FDH, 0.25 mM NAD^+, and 50 µM peptide substrate (ARK(me3)STGGK). A ViewLux imager (PerkinElmer, Waltham, MA) was used to measure NADH fluorescence (λex 340 nm, λem 450 nm) immediately after substrate addition and following 30 min incubation at room temperature. To record any systematic drifts in assay behavior (signal window and noise), assay plates containing no library compounds but only DMSO as a vehicle control were tested periodically (every ∼60 plates) throughout the screen.
Data were normalized to the basal response (0% activity) in the absence of enzyme and the maximal response (100% activity) in the absence of compound. Using the Hill equation, dose-response curves and IC50 values were automatically generated for each compound tested with software developed internally (www.ncgc.nih.gov/pub/openhts/curvefit/). […] The initial well fluorescence (first kinetic read) associated with each sample was stored in a database and used in the cheminformatics analysis to identify autofluorescent compounds interfering with the assay signal.

[1] = target: T2, formaldehyde dehydrogenase (FDH) (Pseudomonas putida, UniProt P46154); assay: FDH coupling enzyme counterscreen; conditions: Table S1, FDH counterscreen; for IC50: unit not in table, from Figure 2, read-out: qHTS Data: jmjd2e fdh IC50
T2 construct: purchased Sigma-Aldrich
T2 sequence (P46154 whole entry): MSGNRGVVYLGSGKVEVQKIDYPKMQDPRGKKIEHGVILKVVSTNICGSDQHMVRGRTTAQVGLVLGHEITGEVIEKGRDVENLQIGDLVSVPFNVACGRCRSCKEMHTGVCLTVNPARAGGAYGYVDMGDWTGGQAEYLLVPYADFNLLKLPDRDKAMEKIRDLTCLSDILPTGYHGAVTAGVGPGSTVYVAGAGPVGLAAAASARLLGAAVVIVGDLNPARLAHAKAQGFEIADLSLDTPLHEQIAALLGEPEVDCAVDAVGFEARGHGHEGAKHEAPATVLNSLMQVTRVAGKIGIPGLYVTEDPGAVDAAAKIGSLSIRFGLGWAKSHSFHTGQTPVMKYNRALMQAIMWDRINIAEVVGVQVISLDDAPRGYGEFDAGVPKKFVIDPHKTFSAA
Source text: Dimethylsulfoxide certified ACS grade (DMSO) was from Fisher, Inc. HEPES buffer was obtained from Gibco. […] Black solid-bottom 1,536-well assay plates were from Greiner Bio-One (Monroe, NC).

JMJD2E = target: T3, JMJD2E (Homo sapiens, UniProt B2RXH2); assay: JMJD2E FDH-coupled assay under low and high iron conditions (iron chelation profile); parameters: The catalytic domain of human JMJD2E (residues 1–337); His6 (N); made in house; host or cells: E. coli; conditions: Table S1; for IC50: unit not in table, from Figure 2
T3 sequence (B2RXH2 1-337): T1 sequence (B2RXH2 1-337)
Procedure: The prioritized compounds were also evaluated in the screening assay using two different ferrous ion concentrations (termed high iron and low iron, respectively), in order to assess their propensity for iron chelation.
The ratio of IC50 values under high iron to low iron was calculated for each compound.

[2] = low iron 2.5 µM FAS, read-out: qHTS Data: jmjd2e fas2.5um IC50
[3] = high iron, head says 20 µM FAS, read-out: qHTS Data: jmjd2e fas20um IC50

SMILES | IC50 (JMJD2E (KDM4E)) [µM] | qHTS Data: jmjd2e fdh CurveClass [1] | qHTS Data: jmjd2e fas20um CurveClass (JMJD2E; high iron) | IC50 (JMJD2E; [2]) [µM] | IC50 [1] [µM] | IC50 (JMJD2E; [3]) [µM] | qHTS Data: jmjd2e fas2.5um Curve comment (JMJD2E; low iron 2.5 µM FAS)
CCOC(=O)Cc1csc(-n2sc3ccccc3c2=O)n1 [compound 3716597] | 10 | Inactive | Inactive | 7.08 |  |  | 
Oc1ccc(CN2CCCc3ccccc32)c2cccnc12 [compound 4249321] | 8.91 | Inactive | Inactive | 1.26 |  |  | 
O=C(CC1Sc2ncnn2C1=O)Nc1ccc(Br)cc1 (stereo not drawn) [compound 7966079] | 2.24 |  |  | 2 | 0.28 | 1 | 
COc1ccc(NC(=O)CC2Sc3ncnn3C2=O)cc1 (stereo not drawn) [compound 7968088] | 2 |  |  | 1.78 | 0.28 | 12.6 | 
COc1ccc(N2C(=O)CC(Sc3ncn[nH]3)C2=O)c(OC)c1 (stereo not drawn) [compound 7974422] | 2.82 |  | Poor quality curve | 1.41 | 0.32 | 35.5 | 
O=Cc1ccc(O)c(O)c1 [compound 8139931] | 4.47 | Inactive | Inactive | 3.55 |  |  | 
Cc1cc2c(C(C)C)c(O)c(O)c(C=O)c2c(O)c1-c1c(C)cc2c(C(C)C)c(O)c(O)c(C=O)c2c1O [compound 11112318] | 7.94 |  |  | 1.12 | 31.6 | 15.8 | 
C[C@@](N)(Cc1ccc(O)c(O)c1)C(=O)O [compound 11112415] | 4.47 | Inactive |  | 4.47 |  | 2 | 
C[C@H](N)[C@H](O)c1ccc(O)c(O)c1 [compound 11112447] | 4.47 | Inactive |  | 3.98 |  | 2.24 | 
CN(C)[C@H]1C(=O)C(C(=O)NCN[C@@H](CCCCN)C(=O)O)=C(O)[C@]2(O)C(=O)C3=C(O)c4c(O)cccc4[C@@](C)(O)[C@H]3C[C@@H]12 [compound 11112463] | 8.91 | Inactive |  | 14.1 |  | 15.8 | 
CN1CC[C@]2(C)c3cc(O)ccc3N(C)[C@@H]12 [compound 11112885] | 2.24 | Inconclusive |  | 8.91 |  | 7.08 | 
O=C(O)c1cccnc1C(=O)O [compound 11113416] | 1.78 | Inactive |  | 7.94 |  | 11.2 | 
Cc1ccc(N2C(=O)CC(Sc3ncn[nH]3)C2=O)cc1C (stereo not drawn) [compound 14726720] | 1.26 |  | Inactive | 1.41 | 0.22 |  | 
Cc1ccc(N2C(=O)CC(Sc3ncn[nH]3)C2=O)cc1 (stereo not drawn) [compound 14726735] | 2.51 |  | Poor quality curve | 2 | 0.32 | 31.6 | 
CC(C)c1ccc(N2C(=O)CC(Sc3ncn[nH]3)C2=O)cc1 (stereo not drawn) [compound 14726804] | 1.58 |  | Poor quality curve | 2.51 | 0.25 | 19.9 | 
O=C1CC(Sc2ncn[nH]2)C(=O)N1c1ccccc1 (stereo not drawn) [compound 14730480] | 2.24 |  | Inactive | 2.51 | 0.32 |  | 
Cc1cc(C(=O)NNC(=S)NC(=O)/C=C/c2ccccc2Cl)n[nH]1 [compound 14736067] | 7.94 | Inactive | Inactive | 8.91 |  |  | 
C=CCc1c(C)nc(C)nc1N/N=C/c1ccccc1O [compound 14741635] | 3.16 | Inactive | Inactive | 3.16 |  |  | 
O=[N+]([O-])c1ccc(O)c(/C=N/Nc2ccc(Cl)nn2)c1 [compound 17416266] | 5.62 | Inactive | Inactive | 5.62 |  |  | 
O=C(NC(=S)NNC(=O)c1ccccc1O)c1ccco1 [compound 17504924] | 7.08 | Poor quality curve | Inactive | 3.55 | 2.82 |  | 

SMILES | IC50 (JMJD2E (KDM4E)) [µM] | qHTS Data: jmjd2e fdh CurveClass [1] | qHTS Data: jmjd2e fas20um CurveClass (JMJD2E; high iron) | IC50 (JMJD2E; [2]) [µM] | IC50 [1] [µM] | IC50 (JMJD2E; [3]) [µM] | qHTS Data: jmjd2e fas2.5um Curve comment (JMJD2E; low iron 2.5 µM FAS)
COc1ccc(-c2cc(=O)n(CCC#N)[nH]2)cc1 [compound 17508964] | 1.78 | Inactive |  |  |  | 12.6 | Inactive
O=C(CSc1ncn[nH]1)c1cccc([N+](=O)[O-])c1 [compound 17510781] | 7.94 |  |  | 10 | 0.89 | 14.1 | 
COc1ccccc1NC(=S)NNC(=O)c1nn(C)c(C)c1Br [compound 22404294] | 7.94 | Inactive |  | 3.98 |  | 2.51 | 
O=C(OCC1O[C@@H](OC(=O)c2cc(O)c(O)c(O)c2)[C@@H](OC(=O)c2cc(O)c(O)c(O)c2)[C@@H](OC(=O)c2cc(O)c(O)c(O)c2)[C@@H]1OC(=O)c1cc(O)c(O)c(O)c1)c1cc(O)c(O)c(O)c1 (stereo partly drawn) [compound 22405492] | 3.16 | Inactive |  | 1.12 |  | 14.1 | 
CCN(CC)c1ccc(N=Cc2c(C)[nH]c3ccccc23)cc1 [compound 22412852] | 0.79 | Inactive |  | 12.6 |  | 7.94 | Poor quality curve
Cc1ccc(O)c(N=NC2=C(O)CC(C)(C)CC2=O)c1 [compound 22414549] | 0.56 | Inactive | Inactive | 5.62 |  |  | 
COc1ccc(-n2c(C)cc(/C=N/Nc3nnc(C)n3N)c2C)cc1.Cl [compound 22416865] | 0.71 | Poor quality curve |  | 5.01 | 28.2 | 5.01 | 
CCN1/C(=C\c2ccc3ccccc3[n+]2CC)Sc2cc(C)ccc21.[I-] [compound 24782097] | 1.41 | Poor quality curve | Poor quality curve | 17.8 | 22.4 | 14.1 | Poor quality curve
O=C(CSc1ncn[nH]1)CSc1ncn[nH]1 [compound 24783149] | 3.55 |  | Inactive | 6.31 | 1 |  | 
Cc1ccnc(NC(c2cccnc2)c2ccc3cccnc3c2O)c1 (stereo not drawn) [compound 24794739] | 5.62 | Poor quality curve |  | 11.2 | 0.03 | 14.1 | 
O=C(CC1Sc2ncnn2C1=O)Nc1ccc(Cl)cc1 (stereo not drawn) [compound 24795544] | 1.58 |  |  | 2 | 0.25 | 7.94 | 
Oc1ccc(NCc2cccc(OCc3ccccc3)c2)cc1 [compound 24795995] | 4.47 | Inactive |  | 14.1 |  | 35.5 | 
Cc1cc(C(=O)NNC(=S)Nc2ccccc2)nn1C [compound 24796479] | 8.91 | Inactive |  | 7.08 |  | 7.94 | 
CCOC(=O)c1ccc(CC(=O)c2ccc(O)c(O)c2O)o1 [compound 24797852] | 3.16 | Inactive |  | 1.41 |  | 10 | 
CN(C)c1ccnc(C(=O)O)c1 [compound 24815512] | 2.82 | Inactive | Poor quality curve |  |  | 15.8 | Inactive
NC(=O)c1ccc(-n2nnnc2SCC(=O)c2ccc(O)c(O)c2)cc1 [compound 24821381] | 0.71 | Inactive | Inactive | 7.94 |  |  | 
Oc1c(C(Nc2nccs2)c2ccc(C(F)(F)F)cc2)ccc2cccnc12 (stereo not drawn) [compound 24832893] | 3.55 | Inactive |  | 28.2 |  | 12.6 | 
CN(C)S(=O)(=O)c1cccc(-n2sc3ccccc3c2=O)c1 [compound 24834029] | 3.55 | Poor quality curve |  | 4.47 | 7.94 | 1.26 | 
Cc1ccc(C)c(S(=O)(=O)N2CCN(Cc3ccc(O)c4ncccc34)CC2)c1 [compound 24838962] | 3.55 | Inconclusive | Inactive | 10 |  |  | 
